Results taken from US4737362A, “Hair treatment composition” (Suntory Limited, priority 1983, dated 1988).
pIC50: −log10 of the molar value.

Target: testosterone 5α-reductase
Test: 5α-reductase inhibitory activity (conversion of radiolabelled testosterone to 5α-dihydrotestosterone, microsomal enzyme specimen)
Type: biochemical, rats
Settings: rat prostate microsomes; pH 6.6; 25° C.; 60 minutes; 8.5 pmol labelled testosterone
Description: The 5α-reductase inhibitory activity was determined as follows.
Prostate gland cells of rats were crushed and a specimen of testosterone 5α-reductase was then prepared by separating microsome from the crushed liquid mixture. The conversion of the testosterone to 5α-dihydrotestosterone by the use of the above-prepared enzyme specimen was monitored by radioisotopically labelled testosterone. The reaction mixture was extracted with ethyl acetate and the extract was developed twice by silica gel thin layer chromatography (solvent system, dichloromethane:cyclohexane:acetone=15:4:1). The amount of 5α-dihydrotestosterone was determined from the intensities of the radioactivity.
A 30 μl amount of a 0.05 M phosphate buffer (pH=6.6), 10 μl of an enzyme specimen, 8.5 pmol of labelled testosterone, 50 nmol of a reduced form of NADP (nicotinamide adenine dinucleotide phosphate), and 10 μl of a test sample were mixed (final volume […]). The mixture was incubated at a temperature of 25° C. for 60 minutes.
The reaction was stopped by the addition of 100 μl of ethyl acetate, and the reaction mixture was extracted by vigorous shaking. The extract was developed in the same manner as mentioned above, and the intensity of the radioisotope was measured by using a scintillation counter.
The above-mentioned determination was applied to samples having various concentrations. […]

SMILES	pIC50
CC/C=C\C/C=C\C/C=C\CCCCCCCC(=O)O [Linolenic acid]	2.80
CCCCCCCCCCCCCCCCCC(=O)O [Stearic acid]	2.89
